The text below walks through data of US8680159B2, “Bradykinin 1 receptor modulating compounds” (Gruenenthal GmbH, priority 2010, dated 2014).

Assay [1] concerns the target T1, B1R receptor of the rat (CHO K1 cells stably transfected with the B1R gene of the rat) (Rattus norvegicus, UniProt P97583).
T1 construct: expressed in transfected cells; host or cells: CHO K1 cells (Chinese hamster ovary), stably transfected
T1 sequence (P97583 1-337): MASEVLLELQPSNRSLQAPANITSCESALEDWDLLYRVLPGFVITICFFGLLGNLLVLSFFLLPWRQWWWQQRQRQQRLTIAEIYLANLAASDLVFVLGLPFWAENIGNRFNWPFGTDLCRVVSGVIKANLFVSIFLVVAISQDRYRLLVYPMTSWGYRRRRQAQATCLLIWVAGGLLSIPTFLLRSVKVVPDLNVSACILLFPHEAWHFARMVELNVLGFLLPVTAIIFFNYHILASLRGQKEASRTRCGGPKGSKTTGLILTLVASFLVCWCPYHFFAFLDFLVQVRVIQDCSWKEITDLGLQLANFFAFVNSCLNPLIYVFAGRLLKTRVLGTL
In words: Functional study on the bradykinin receptor 1 (B1R), Ca2+ fluorescence (Fluo-4) FLIPR/Novostar assay, rB1R cells. It is filed as cell-based. The settings on record: CHO-K1, 10 μM, read-out: % inhibition (rat B1R) at 10 μM. In short, it runs like this: (§1)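 Test compounds (10 μM) were added first and the Ca2+ rise was scored as % activation against Lys-Des-Arg9-bradykinin (≥50 nM, human) or Des-Arg9-bradykinin (≥1 μM, rat). After 6-20 min, the matching agonist was given at its EC80, and % inhibition relative to maximal achievable inhibition was calculated.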

Assay [2] has as its target T2, human B1R receptor (CHO K1 cells stably transfected with the human B1R gene) (Homo sapiens, UniProt P46663).
T2 construct: expressed in transfected cells; host or cells: CHO K1 cells (Chinese hamster ovary), stably transfected
T2 sequence (P46663 1-353): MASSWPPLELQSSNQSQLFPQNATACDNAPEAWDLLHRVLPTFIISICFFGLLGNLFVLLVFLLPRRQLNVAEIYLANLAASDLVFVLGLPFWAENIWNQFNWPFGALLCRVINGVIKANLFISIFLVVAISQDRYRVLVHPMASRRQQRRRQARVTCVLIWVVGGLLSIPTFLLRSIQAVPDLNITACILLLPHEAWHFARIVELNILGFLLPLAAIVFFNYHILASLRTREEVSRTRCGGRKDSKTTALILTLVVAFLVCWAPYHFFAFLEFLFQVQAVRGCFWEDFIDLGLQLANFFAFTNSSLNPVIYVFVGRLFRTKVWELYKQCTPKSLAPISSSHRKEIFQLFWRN
Kind of assay: Functional study on the bradykinin receptor 1 (B1R), Ca2+ fluorescence (Fluo-4) FLIPR/Novostar assay, hB1R cells. It is filed as cell-based. The following applies: CHO-K1, read-out: % inhibition (human B1R) at 10 μM. In short, it runs like this: as §1

For orientation: inhibition means the change of the read-out against control, counted positive when it falls.

SMILES strings stand for the structures.

For the compound `CN(C(=O)c1ccc2c(c1)[C@H](NC(=O)c1ccc(F)cc1)CC2)C1CCN(c2ccncc2)CC1` [Example H-75, (3R)-3-[(4-Fluoro-benzoyl)amino]-N-methyl-N-(1-pyridin-4-yl-piperidin-4-yl)-2,3-dihydro-1H-indene-5-carboxylic acid amide], the inhibition at 10 µM in assay [1] amounted to 105%; in assay [2], 100%.
With `CN(C(=O)c1ccc2c(c1)[C@H](NC(=O)C1CCOCC1)CC2)C1CCN(c2ccncc2)CC1` [Example H-76, N-[(1R)-6-[Methyl-(1-pyridin-4-yl-piperidin-4-yl)-carbamoyl]-2,3-dihydro-1H-yl)-1-2,3-tetrahydro-pyran-4-carboxylic acid amide], the inhibition at 10 µM in assay [1] was determined as 107%; in assay [2], 95%.
Consider `CCN(C(=O)c1ccc2c(c1)[C@H](NC(=O)c1ccccc1Cl)CC2)C1CCN(c2ccncc2)CC1` [Example H-77, (3R)-3-[(2-Chloro-benzoyl)amino]-N-ethyl-N-(1-pyridin-4-yl-piperidin-4-yl)-2,3-dihydro-1H-indene-5-carboxylic acid amide], for which the results for the inhibition at 10 µM in assay [1] and in assay [2] were 104% and 100%, respectively.
Regarding `CN(C(=O)c1ccc2c(c1)[C@H](NC(=O)c1ccccc1Cl)CC2)C1CCN(c2ccc(F)cc2)CC1` [Example H-78, (3R)-3-[(2-Chloro-benzoyl)amino]-N-[1-(4-fluorophenyl)-pipendin-4-yl]-N-methyl-2,3-dihydro-1H-indene-5-carboxylic acid amide], the inhibition at 10 µM in assay [1] was found to be 85%; in assay [2], 31%.
With `CCN(C(=O)c1ccc2c(c1)[C@H](NC(=O)c1ccccc1Cl)CC2)C1CCN(c2ccnc(C)c2)CC1` [Example H-79, (3R)-3-[(2-Chloro-benzoyl)amino]-N-ethyl-N-[1-(2-methyl-pyridin-4-yl)-piperidin-4-yl]-2,3-dihydro-1H-indene-5-carboxylic acid amide], the values for the inhibition at 10 µM in assay [1] and in assay [2] were 110% and 100%, respectively.
For `CN(C(=O)c1cc(F)c2c(c1)[C@H](NC(=O)c1ccccc1Cl)CCO2)C1CCN(c2ccncc2)CC1` [Example H-80, (4R)-4-[(2-Chloro-benzoyl)amino]-8-fluoro-N-methyl-N-(1-pyridin-4-yl-piperidin-4-yl)-3,4-dihydro-2H-chromene-6-carboxylic acid amide] the same measures were 110% and 100%.
For `Cc1cc(N2CCC(N(C)C(=O)c3cc(F)c4c(c3)[C@H](NC(=O)c3ccccc3Cl)CCO4)CC2)nc(C)n1` [Example H-81, (4R)-4-[(2-Chloro-benzoyl)amino]-N-[1-(2,6-dimethyl-pyrimidin-4-yl)-piperidin-4-yl]-8-fluoro-N-methyl-3,4-dihydro-2H-chromene-6-carboxylic acid amide] the same measures were 109% and 95%.
For `CN(C(=O)c1ccc2c(c1)[C@H](NC(=O)C1CCc3ccccc31)CC2)C1CCN(c2ccncc2)CC1` (stereo partly drawn) [Example H-82, (3R)-3-(2,3-Dihydro-1H-inden-1-carbonylamino)-N-methyl-N-(1-pyridin-4-yl-piperidin-4-yl)-2,3-dihydro-1H-indene-5-carboxylic acid amide] the same measures were 112% and 100%.
For `CN(C(=O)c1ccc2c(c1)[C@H](NC(=O)c1cncc3ccccc13)CC2)C1CCN(c2ccncc2)CC1` [Example H-83, N-[(1R)-6-[Methyl-(1-pyridin-4-yl-piperidin-4-yl)-carbamoyl]-2,3-dihydro-1H-inden-1-yl]-isoquinoline-4-carboxylic acid amide], the inhibition at 10 µM came to 111% in assay [1] and 100% in assay [2].
The corresponding values for `CN(C(=O)c1ccc2c(c1)[C@H](NC(=O)C1CCOc3ccccc31)CC2)C1CCN(c2ccncc2)CC1` (stereo partly drawn) [Example H-84, N-[(1R)-6-[Methyl-(1-pyridin-4-yl-piperidin-4-yl)-carbamoyl]-2,3-dihydro-1H-inden-1-yl]-3,4-dihydro-2H-chromene-4-carboxylic acid amide] are 103% and 100%.
As to `Cc1cc(N2CCC(N(C)C(=O)c3ccc4c(c3)[C@H](NC(=O)CC(C)C)CC4)CC2)ccn1` [Example H-85, (3R)-N-Methyl-3-(3-methyl-butanoylamino)-N-[1-(2-methyl-pyridin-4-yl)-piperidin-4-yl]-2,3-dihydro-1H-indene-5-carboxylic acid amide], the results for the inhibition at 10 µM in assay [1] and in assay [2] were 103% and 100%, respectively.
As to `Cc1cc(N2CCC(N(C)C(=O)c3ccc4c(c3)[C@H](NC(=O)CC(C)C)CC4)CC2)nc(C)n1` [Example H-86, (3R)-N-[1-(2,6-Dimethyl-pyrimidin-4-yl)-piperidin-4-yl]-N-methyl-3-(3-methyl-butanoylamino)-2,3-dihydro-1H-indene-5-carboxylic acid amide], the inhibition at 10 µM stood at 98% in assay [1] and 100% in assay [2].
The corresponding values for `CN(C(=O)c1cc(F)c2c(c1)[C@H](N1Cc3cccc(Cl)c3C1=O)CCO2)C1CCN(c2ccncc2)CC1` [Example H-87, (4R)-4-(4-Chloro-3-oxo-1,2-dihydro-isoindol-2-yl)-8-fluoro-N-methyl-N-(1-pyridin-4-yl-piperidin-4-yl)-3,4-dihydro-2H-chromene-6-carboxylic acid amide] are 104% and 39%.
The corresponding values for `Cc1cc(N2CCC(N(C)C(=O)c3ccc4c(c3)[C@H](NC(=O)C3CCOCC3)CC4)CC2)ccn1` [Example H-88, N-[(1R)-6-[Methyl-[1-(2-methyl-pyridin-4-yl)-piperidin-4-yl]-carbamoyl]-2,3-dihydro-1H-inden-1-yl]-tetrahydro-pyran-4-carboxylic acid amide] are 104% and 96%.
For `Cc1cc(N2CCC(N(C)C(=O)c3ccc4c(c3)[C@H](NC(=O)C3CCOCC3)CC4)CC2)nc(C)n1` [Example H-89, N-[(1R)-6-[[1-(2,6-Dimethyl-pyrimidin-4-yl)-piperidin-4-yl]-methyl-carbamoyl]-2,3-dihydro-1H-inden-1-yl]-tetrahydro-pyran-4-carboxylic acid amide] the same measures were 89% and 74%.
Regarding `CN(C(=O)c1ccc2c(c1)[C@H](NC(=O)c1ccccc1Cl)CC2)C1CCN(C(=O)CCN2CCCCC2)CC1` [Example H-90, (3R)-3-[(2-Chloro-benzoyl)amino]-N-methyl-N-[1-(3-piperidin-1-yl-propanoyl)-piperidin-4-yl]-2,3-dihydro-1H-indene-5-carboxylic acid amide], the inhibition at 10 µM turned out to be 105% in assay [1] and 62% in assay [2].
For `Cc1cc(N2CCC(N(C)C(=O)c3ccc4c(c3)[C@H](NC(=O)c3cccnc3C(F)(F)F)CC4)CC2)nc(C)n1` [Example H-91, N-[(1R)-6-[[1-(2,6-Dimethyl-pyrimidin-4-yl)-piperidin-4-yl]-methyl-carbamoyl]-2,3-dihydro-1H-inden-1-yl]-2-(trifluoromethyl)-pyridine-3-carboxylic acid amide] the same measures were 108% and 100%.
For `Cc1cc(N2CCC(N(C)C(=O)c3ccc4c(c3)[C@H](NC(=O)c3cccnc3C(F)(F)F)CC4)CC2)ccn1` [Example H-92, N-[(1R)-6-[Methyl-[1-(2-methyl-pyridin-4-yl)-piperidin-4-yl]-carbamoyl]-2,3-dihydro-1H-inden-1-yl]-2-(trifluoromethyl)-pyridine-3-carboxylic acid amide] the same measures were 106% and 100%.
In the case of `Cc1cc(N2CCC(N(C)C(=O)c3ccc4c(c3)[C@H](NC(=O)CCC3CCCC3)CC4)CC2)ccn1` [Example H-93, (3R)-3-(3-Cyclopentyl-propanoylamino)-N-methyl-N-[1-(2-methyl-pyridin-4-yl)-piperidin-4-yl]-2,3-dihydro-1H-indene-5-carboxylic acid amide], the inhibition at 10 µM in assay [1] was found to be 103%; in assay [2], 100%.
Consider `Cc1cc(N2CCC(N(C)C(=O)c3ccc4c(c3)[C@H](NC(=O)CCC3CCCC3)CC4)CC2)nc(C)n1` [Example H-94, (3R)-3-(3-Cyclopentyl-propanoylamino)-N-[1-(2,6-dimethyl-pyrimidin-4-yl)-piperidin-4-yl]-N-methyl-2,3-dihydro-1H-indene-5-carboxylic acid amide], for which the results for the inhibition at 10 µM in assay [1] and in assay [2] were 99% and 100%, respectively.
